According to the Biogen ADME set (Fang et al. 2023):
Converted amounts (≈) assume the structure as drawn.

Details: for aqueous solubility: pH 6.8

| MDR1-MDCK efflux ratio | intrinsic clearance, human liver microsomes | intrinsic clearance, rat liver microsomes | aqueous solubility | fraction unbound, human plasma | fraction unbound, rat plasma | SMILES |
| --- | --- | --- | --- | --- | --- | --- |
| 0.465 | 105 mL/min/kg | 310 mL/min/kg | – | – | – | Cc1cc(Cl)n(-c2ccc(C#N)cc2)n1 |
| 25 | 80.2 mL/min/kg | 165 mL/min/kg | 3.72 µg/mL (≈ 7.19 µM) | – | – | c1ccc(-c2c(-c3ccc(OCCN4CCCC4)cc3)[nH]c3ncnc(NCC4SCCS4)c23)cc1 |
| 0.521 | 14.2 mL/min/kg | 124 mL/min/kg | 36.4 µg/mL (≈ 128 µM) | – | – | Cc1nc(C)c(CNc2cnn(-c3ccccc3)c2)s1 |
| 0.63 | ≤ 4.74 mL/min/kg | 40.2 mL/min/kg | 23.5 µg/mL (≈ 106 µM) | – | – | CC(C)n1nnnc1-c1ccc(N)cc1F |
| 2.43 | 211 mL/min/kg | 2010 mL/min/kg | – | 0.147 | 0.179 | COCCc1noc(CN2CC(c3ccccc3)(c3ccccc3)CCC2=O)n1 |
| 1.21 | 5.04 mL/min/kg | 193 mL/min/kg | – | – | – | Cn1ccnc1-c1noc(NCc2ccccc2)n1 |
| 2.74 | 124 mL/min/kg | 1260 mL/min/kg | 22.2 µg/mL (≈ 62 µM) | – | – | CN(C)c1cnn(CCC(C#N)(c2ccccc2)c2ccccc2)c(=O)c1 |
| 0.543 | ≤ 4.74 mL/min/kg | 71.6 mL/min/kg | 60.8 µg/mL (≈ 241 µM) | – | – | NC(=O)CN1CCC(Oc2cccc(F)c2)CC1 |
| 0.596 | 15.3 mL/min/kg | 25.4 mL/min/kg | 22.1 µg/mL (≈ 109 µM) | – | – | CN(C)c1ncn(-c2cccc(N)c2)n1 |
| 0.578 | 11.8 mL/min/kg | 546 mL/min/kg | 45.8 µg/mL (≈ 174 µM) | – | – | Cc1csc(CN(C)c2ccnc(N(C)C)n2)n1 |
| 1.42 | 14 mL/min/kg | 55.8 mL/min/kg | 23 µg/mL (≈ 93.7 µM) | – | – | CC(C)C(=O)Nc1ccc2cnn(C(C)C)c2c1 |
| 1.29 | ≤ 4.74 mL/min/kg | 15.3 mL/min/kg | – | – | – | COCC(=O)Nc1cc(C#N)cn1C(C)(C)C |
| – | 364 mL/min/kg | 2380 mL/min/kg | – | – | – | Cc1ccc(S(=O)(=O)Nc2ccc3c(c2)CCCN3C(=O)c2cccs2)cc1C |
| 2.4 | ≤ 4.74 mL/min/kg | 29.8 mL/min/kg | – | – | – | O=C(NC1CCCCC1)C1=CCN(C(=O)C2CC2)C1 |
| – | ≤ 4.74 mL/min/kg | 253 mL/min/kg | – | – | – | CCCn1cc(CNC(=O)CN2CCCC2)cn1 |
| 0.457 | 12.7 mL/min/kg | 186 mL/min/kg | 29 µg/mL (≈ 90.4 µM) | – | – | Cc1cc(NC(=O)C2CCN(c3ccncc3Cl)CC2)no1 |
| – | ≤ 4.74 mL/min/kg | 87.1 mL/min/kg | – | – | – | CC(C)NC(=O)CN(C)c1ccc(Cl)c(C#N)n1 |
| 1.33 | ≤ 4.74 mL/min/kg | 28.3 mL/min/kg | 34.2 µg/mL (≈ 152 µM) | – | – | CON(C)C(=O)CCc1c(C)nn(C)c1C |
| 22.1 | 126 mL/min/kg | 891 mL/min/kg | 42 µg/mL (≈ 116 µM) | – | – | CCc1ccccc1NC(=O)CCn1ccnc1-c1ccc2c(c1)OCO2 |
| 0.776 | 57.4 mL/min/kg | 518 mL/min/kg | 25.8 µg/mL (≈ 81.4 µM) | – | – | CC(C)(C)c1nnnn1CC(=O)NC12CC3CC(CC(C3)C1)C2 |

| MDR1-MDCK efflux ratio | intrinsic clearance, human liver microsomes | intrinsic clearance, rat liver microsomes | aqueous solubility | fraction unbound, human plasma | fraction unbound, rat plasma | SMILES |
| --- | --- | --- | --- | --- | --- | --- |
| 15.5 | 106 mL/min/kg | 664 mL/min/kg | – | – | – | Cc1cc(Nc2ccc(F)cn2)cc(C2CCN(C(=O)COc3ccccc3)C2)n1 (stereo unspecified) |
| 6.5 | ≤ 4.74 mL/min/kg | 33.1 mL/min/kg | – | – | – | Cc1cc(C)n2nc(C)c(C(=O)NCCc3nnc(C)s3)c2n1 |
| – | 92.1 mL/min/kg | 1570 mL/min/kg | 51 µg/mL (≈ 170 µM) | – | – | c1nc(Nc2ccc3c(c2)OCCCO3)c2sccc2n1 |
| 3.5 | 43.2 mL/min/kg | 2740 mL/min/kg | 57.1 µg/mL (≈ 165 µM) | – | – | O=C(C1CCC1)N1CCC(c2ncc(-c3ccc(F)c(F)c3)[nH]2)CC1 |
| 0.564 | 20.5 mL/min/kg | 1040 mL/min/kg | – | – | – | OC1(Cc2nc(-c3ccsc3)no2)CCCCC1 |
| 23.5 | ≤ 4.74 mL/min/kg | 19.9 mL/min/kg | 45 µg/mL (≈ 157 µM) | – | – | CCNC(=O)C1CN(c2nc(C3CC3)nc3c2CCC3)C1 |
| 1.67 | ≤ 4.74 mL/min/kg | ≤ 10.7 mL/min/kg | – | – | – | O/N=C1/CCCc2c1cnc1ncnn21 |
| 0.998 | ≤ 4.74 mL/min/kg | 93.1 mL/min/kg | 34.8 µg/mL (≈ 116 µM) | – | – | CCNC(=O)c1ccc(-c2cc(C)cc(OC)c2OC)nc1 |
| 11.7 | 7.14 mL/min/kg | 44.7 mL/min/kg | – | – | – | C[C@]1(O)CN(C(=O)Cn2cnc3ccccc3c2=O)CC[C@@H]1Oc1ccccc1 |
| – | 35.3 mL/min/kg | 92.3 mL/min/kg | – | – | – | Nc1c(C(=O)NCC2CCCO2)sc(=S)n1-c1ccc(Cl)cc1 (stereo unspecified) |
| 123 | – | – | – | – | – | COc1cc(Nc2c(C#N)cnc3cc(OCCCN4CCN(C)CC4)c(OC)cc23)c(Cl)cc1Cl |
| – | ≤ 4.74 mL/min/kg | 239 mL/min/kg | – | – | – | Cc1cc(C(=O)N(C)Cc2ccccc2C)[nH]n1 |
| 1.27 | ≤ 4.74 mL/min/kg | ≤ 10.7 mL/min/kg | 47.9 µg/mL (≈ 235 µM) | – | – | NC(=O)COc1ncnc2ccccc12 |
| 0.572 | 89.3 mL/min/kg | 605 mL/min/kg | 40.1 µg/mL (≈ 140 µM) | – | – | COc1ccc(Nc2ncnc3sccc23)c(OC)c1 |
| 28.3 | ≤ 4.74 mL/min/kg | 366 mL/min/kg | 57.5 µg/mL (≈ 160 µM) | – | – | CCCCc1nc2cc(/C=C/C(=O)NO)ccc2n1CCN(CC)CC |
| – | 94.4 mL/min/kg | 2250 mL/min/kg | 16.9 µg/mL (≈ 59.5 µM) | – | – | CN(C)c1cccc(C2CCN(c3ncccn3)CC2)n1 |
| – | 13.6 mL/min/kg | 240 mL/min/kg | – | – | – | O=C(NCCN1CCc2ccccc2C1=O)c1ccncc1 |
| 0.62 | ≤ 4.74 mL/min/kg | ≤ 10.7 mL/min/kg | – | – | – | O=C(NCc1cccs1)c1cccnc1 |
| 0.582 | 53.1 mL/min/kg | 952 mL/min/kg | 56.9 µg/mL (≈ 187 µM) | – | – | Cc1ccsc1C(=O)NCc1ccc2c(c1)OCCCO2 |
| – | – | – | 44.7 µg/mL (≈ 184 µM) | – | – | Cc1ccccc1N(CC(=O)O)S(C)(=O)=O |

| MDR1-MDCK efflux ratio | intrinsic clearance, human liver microsomes | intrinsic clearance, rat liver microsomes | aqueous solubility | fraction unbound, human plasma | fraction unbound, rat plasma | SMILES |
| --- | --- | --- | --- | --- | --- | --- |
| 0.783 | ≤ 4.74 mL/min/kg | ≤ 10.7 mL/min/kg | 83.3 µg/mL (≈ 278 µM) | – | – | CC1(C)CN(C(=O)c2cncc(Br)c2)CCO1 |
| 0.708 | 5.23 mL/min/kg | 31.3 mL/min/kg | 33.8 µg/mL (≈ 159 µM) | – | – | O=C(NC1CC1)c1cccc2cccnc12 |
| 0.795 | ≤ 4.74 mL/min/kg | 21.6 mL/min/kg | – | – | – | Cc1nc(NCc2sccc2C)n(C)n1 |
| 4.14 | ≤ 4.74 mL/min/kg | ≤ 10.7 mL/min/kg | – | – | – | O=C(Nc1nnc2n1CCCC2)c1cscn1 |
| 3 | ≤ 4.74 mL/min/kg | ≤ 10.7 mL/min/kg | 50.6 µg/mL (≈ 222 µM) | – | – | O=C(O)/C=C/c1ccc(Cn2ccnc2)cc1 |
| – | 131 mL/min/kg | 140 mL/min/kg | 35.3 µg/mL (≈ 142 µM) | – | – | O=C(Nc1ccccn1)c1cccc2ccccc12 |
| 1.45 | 35.4 mL/min/kg | 500 mL/min/kg | 40.4 µg/mL (≈ 145 µM) | – | – | Cc1nccc(-c2cccc(-n3ccnc3C(C)C)c2)n1 |
| 0.619 | 51.6 mL/min/kg | 366 mL/min/kg | – | – | – | Cc1nn(C)c(C)c1-c1cc(C(C)(C)C)nc(N(C)C)n1 |
| 1.96 | 29 mL/min/kg | 728 mL/min/kg | – | – | – | OCc1nnc(SCCSC2CCCCC2)n1C1CC1 |
| 47.2 | 15 mL/min/kg | 142 mL/min/kg | 32.2 µg/mL (≈ 87.5 µM) | – | – | CCc1nnsc1C(=O)Nc1cccc(-c2nnc3n2CCCCC3)c1 |
| 1.69 | ≤ 4.74 mL/min/kg | ≤ 10.7 mL/min/kg | 53.9 µg/mL (≈ 237 µM) | – | – | COc1cc(C(=O)O)c(N)c(OC)c1OC |
| – | – | – | 37 µg/mL (≈ 183 µM) | – | – | CNC(=O)c1cc(-c2ccccc2)no1 |
| 1.61 | – | – | – | – | – | CC(C)OC(=O)N1CCC(Oc2ncnc3c2cnn3-c2ccc(S(C)(=O)=O)cc2F)CC1 |
| 0.995 | 61.5 mL/min/kg | 878 mL/min/kg | 3.82 µg/mL (≈ 11 µM) | – | – | CNc1ncc(-c2nc(C3(c4ccccc4)CC3)nn2C(C)(C)C)cn1 |
| – | – | – | 3.71 µg/mL (≈ 12.6 µM) | – | – | COCc1cccc(NC(=O)c2cn(C)c3ccccc23)c1 |
| 0.28 | 127 mL/min/kg | 1730 mL/min/kg | 11.7 µg/mL (≈ 33.6 µM) | – | – | Cc1cc2cc(C(=O)N(Cc3ccc4c(c3)OCO4)C3CC3)ccc2o1 |
| 0.578 | ≤ 4.74 mL/min/kg | ≤ 10.7 mL/min/kg | 32.1 µg/mL (≈ 134 µM) | – | – | CN(Cc1cccc(C#N)c1)Cc1cnn(C)c1 |
| 0.838 | 22.4 mL/min/kg | 257 mL/min/kg | 22 µg/mL (≈ 68.4 µM) | – | – | O=C(NC1CCCCC1)C1CCN(c2ccncc2Cl)CC1 |
| 0.668 | 13.1 mL/min/kg | 2060 mL/min/kg | 30.7 µg/mL (≈ 119 µM) | – | – | CCCNC(=O)c1c(C)nn(-c2ccccc2)c1C |

| SMILES | MDR1-MDCK efflux ratio | intrinsic clearance, human liver microsomes | intrinsic clearance, rat liver microsomes | aqueous solubility | fraction unbound, human plasma | fraction unbound, rat plasma |
| --- | --- | --- | --- | --- | --- | --- |
| O=C(CN1CCCC1=O)NCC1(CO)CCCC1 | 2.26 | ≤ 4.74 mL/min/kg | ≤ 10.7 mL/min/kg | – | – | – |
